Consider 22 molecules from US9926304B2, “1-(arylmethyl)quinazoline-2,4(1H,3H)-diones as PARP inhibitors and the use thereof” (Impact Therapeutics, Inc., priority 2011, dated 2018).

The subject of assay [1] is SW620 human colorectal cancer cells. The assay can be described thus: MTT based cell viability assay: potentiation of the growth inhibiting activity of MMS.
Procedure: Briefly, SW620 human colorectal cancer cells were used to measure the cell growth inhibiting activity of DNA alkylating anticancer drug MMS. […] SW620 cells were grown and maintained in RPMI1640 (Gibco) medium supplemented with 10% FBS (Hyclone). In the first day of experiment, 4000 cells were seeded to each well of a 96-well cell culture plate and incubated at 37° C. and 5% CO2 in a cell culture incubator overnight. In the next day, the cell culture medium was removed. […] The serial dilutions of the reference compounds and the compounds to be tested were made with a 1:3 and 1:10 fashion in DMSO. The 10-fold concentrated solutions of these compounds were made by mixing 10 μl of the serial dilutions in DMSO with 90 μl fresh medium. The final concentration of DMSO in the medium was 1%. The cells were incubated at 37° C. in 5% CO2 cell culture incubator for additional 5 days (120 hours). Afterwards, the 96-well cell culture plate was taken out and 20 μl of MTT solution was added to each well and incubated at 37° C. for 4 h. The medium was removed and 100 μl DMSO was added to each well. The 96-well cell culture plates were shaked adequately for 10 min and read in a Varioskan Flash plate reader (Thermo Fisher Scientific) at 520 and 690 nm. The data were analyzed by Prism 5 software (GraphPad). The obtained 520 nm absorbance readings subtracting corresponding 690 nm reading were analyzed and plotted against the Log scale of the compound concentrations.
In assay [2] the test system is Human breast cancer cell line T47D. Kind of assay: Cell based caspase-3 activity assay: potentiation of MMS induced apoptosis. The following applies: T47D cells, 11.1 μg/ml MMS, 24 hours, intracellular caspase-3 activity, read-out: EC50 (nM), potentiation of the apoptosis inducing activity of MMS. In a few lines:
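T47D cells were exposed for 24 h to compound plus a minimally apoptotic MMS dose (medium containing 11.1 μg/ml MMS). Lysates were incubated 3 h at 37 °C with (Ac-DEVD)2-R110 caspase-3 substrate (20 μM in added buffer) and read at ex 496/em 520 nm. EC50 came from a sigmoidal fit of RFU versus log concentration.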

[3] abbreviates: Homo sapiens, SW-620, 120 h, read-out: IC50 (nM), potentiation of the growth inhibiting activity of MMS, SW620 cells, 1.7 μg/ml MMS, 5 days (120 hours), MTT.
Where [4] appears, read: read-out: IC50 (nM), potentiation of the growth inhibiting activity of MMS, SW620 cells, 1.7 μg/ml MMS, 5 days (120 hours), MTT, hydrochloride.

Counter-ions that a name gives are not always drawn. Like-named read-outs stand apart in the source and are kept apart here.

The term EC50 denotes the concentration at which the effect is half-maximal. Consider `O=C(c1ccc(F)c(Cn2c(=O)[nH]c(=O)c3cc(Cl)ccc32)c1)N1CCN(c2ccccn2)CC1` [Example 174, 6-Chloro-1-(6-fluoro-3-(4-(pyridin-2-yl)piperazine-1-carbonyl)benzyl)quinazoline-2,4(1H,3H)-dione], for which the IC50 in assay [1] (setting [3]) turned out to be 94 nM. Moreover, in assay [2] (Homo sapiens, T47D, 24 h), the EC50 was 37 nM.

For `O=C(c1cc(F)cc(Cn2c(=O)[nH]c(=O)c3cc(Cl)ccc32)c1)N1CCN(c2ncccn2)CC1` [Example 175, 6-Chloro-1-(5-fluoro-3-(4-(pyrimidin-2-yl)piperazine-1-carbonyl)benzyl)quinazoline-2,4(1H,3H)-dione], in assay [1] (setting [3]), the IC50 was determined as 16 nM. Also, the EC50 in assay [2] (Homo sapiens, T47D, 24 h) worked out at 14 nM.

With `O=C(c1cccc(Cn2c(=O)[nH]c(=O)c3ccccc32)c1)N1CCN(C2CCCC2)CC1` [Example 177, 1-(3-(4-Cyclopentylpiperazine-1-carbonyl)benzyl)quinazoline-2,4(1H,3H)-dione], the IC50 in assay [1] (setting [3]) is over 10000 nM. For the same molecule, the EC50 in assay [2] (Homo sapiens, T47D, 24 h) came out at 743 nM.

Regarding `O=C(c1cc(Cn2c(=O)[nH]c(=O)c3cc(F)ccc32)ccc1F)N1CCN(C(=O)C2CC2)CC1` [Example 178, 1-(3-(4-(Cyclopropylcarbonyl)piperazine-1-carbonyl)-4-fluorobenzyl)-6-fluoroquinazoline-2,4(1H,3H)-dione], the IC50 in assay [1] (setting [3]) came out at 7.9 nM. The EC50 in assay [2] (Homo sapiens, T47D, 24 h) stood at 11 nM.

As to `O=C(c1cccc(Cn2c(=O)[nH]c(=O)c3cc(F)ccc32)c1)N1CCN(C(=O)C2CCC2)CC1` [Example 179, 1-(3-(4-(Cyclobutylcarbonyl)piperazine-1-carbonyl)benzyl)-6-fluoroquinazoline-2,4(1H,3H)-dione], the IC50 in assay [1] (setting [3]) stood at 12 nM. Besides, the EC50 in assay [2] (Homo sapiens, T47D, 24 h) was 7.4 nM.

Take `O=C(c1cc(Cn2c(=O)[nH]c(=O)c3cc(F)ccc32)ccc1F)N1CCN(C(=O)C2CCC2)CC1` [Example 180, 1-(3-(4-(Cyclobutylcarbonyl)piperazine-1-carbonyl)-4-fluorobenzyl)-6-fluoroquinazoline-2,4(1H,3H)-dione]: in assay [1] (setting [3]), the IC50 was found to be 3.1 nM. In addition, in assay [2] (Homo sapiens, T47D, 24 h), the EC50 was determined as 1.4 nM.

For `O=C(c1ccccc1)N1CCN(C(=O)c2cc(Cn3c(=O)[nH]c(=O)c4cc(F)ccc43)ccc2F)CC1` [Example 181, 1-(3-(4-Benzoylpiperazine-1-carbonyl)-4-fluorobenzyl)-6-fluoroquinazoline-2,4(1H,3H)-dione], in assay [1] (setting [3]), the IC50 was found to be 4.9 nM. In addition, the EC50 in assay [2] (Homo sapiens, T47D, 24 h) amounted to 2.4 nM.

In the case of `O=C(c1ccc(F)c(Cn2c(=O)[nH]c(=O)c3c(F)cccc32)c1)N1CCN(C(=O)C2CCC2)CC1` [Example 182, 1-(3-(4-(Cyclobutylcarbonyl)piperazine-1-carbonyl)-6-fluorobenzyl)-5-fluoroquinazoline-2,4(1H,3H)-dione], in assay [1] (setting [3]), the IC50 came out at 16 nM. Moreover, in assay [2] (Homo sapiens, T47D, 24 h), the EC50 was found to be 14 nM.

Take `O=C(c1ccc(F)c(Cn2c(=O)[nH]c(=O)c3cc(F)ccc32)c1)N1CCN(C(=O)C2CCC2)CC1` [Example 183, 1-(3-(4-(Cyclobutylcarbonyl)piperazine-1-carbonyl)-6-fluorobenzyl)-6-fluoroquinazoline-2,4(1H,3H)-dione]: in assay [1] (setting [3]), the IC50 was 13 nM. Also, the EC50 in assay [2] (Homo sapiens, T47D, 24 h) turned out to be 6.1 nM.

For the molecule `O=C(c1ccc(F)c(Cn2c(=O)[nH]c(=O)c3c(F)cccc32)c1)N1CCN(C(=O)c2ccco2)CC1` [Example 184, 5-Fluoro-1-(6-fluoro-3-(4-(furan-2-carbonyl)piperazine-1-carbonyl)benzyl)quinazoline-2,4(1H,3H)-dione], the IC50 in assay [1] (setting [3]) is 62 nM. Besides, the EC50 in assay [2] (Homo sapiens, T47D, 24 h) stood at 18 nM.

As for `O=C(c1ccc(Cl)c(Cn2c(=O)[nH]c(=O)c3cc(F)ccc32)c1)N1CCN(c2ncccn2)CC1` [Example 187, 1-(6-Chloro-3-(4-(pyrimidin-2-yl)piperazine-1-carbonyl)benzyl)-6-fluoroquinazoline-2,4(1H,3H)-dione], in assay [1] (setting [3]), the IC50 stood at 27 nM. Further, the EC50 in assay [2] (Homo sapiens, T47D, 24 h) came to 30 nM.

For the molecule `O=C(c1cc(Cn2c(=O)[nH]c(=O)c3ccccc32)ccc1F)N1CCN(c2ncccn2)CC1` [Example 192, 1-(4-Fluoro-3-(4-(pyrimidin-2-yl)piperazine-1-carbonyl)benzyl)quinazoline-2,4(1H,3H)-dione hydrochloride], in assay [1] (setting [4]), the IC50 came out at 79 nM. For the same molecule, the EC50 in assay [2] (hydrochloride) came out at 3.1 nM.

In the case of `O=C(c1cc(Cn2c(=O)[nH]c(=O)c3c(F)cccc32)ccc1F)N1CCN(c2ncccn2)CC1` [Example 193, 5-Fluoro-1-(4-fluoro-3-(4-(pyrimidin-2-yl)piperazine-1-carbonyl)benzyl)quinazoline-2,4(1H,3H)-dione hydrochloride], in assay [1] (setting [4]), the IC50 worked out at 4.5 nM. Further, the EC50 in assay [2] (hydrochloride) came out at 1.6 nM.

`O=C(c1cccc(Cn2c(=O)[nH]c(=O)c3ccccc32)c1)N1CCN(c2ncccn2)CC1` [Example 194, 1-(3-(4-(Pyrimidin-2-yl)piperazine-1-carbonyl)benzyl)quinazoline-2,4(1H,3H)-dione hydrochloride]: in assay [1] (setting [3]), the IC50 stood at 18 nM. Also, the EC50 in assay [2] (Homo sapiens, T47D, 24 h) turned out to be 11 nM.

Take `O=c1[nH]c(=O)n(Cc2cccc(CN3CCN(c4ccccn4)CC3)c2)c2ccccc12` [Example 195, 1-(3-((4-(Pyridin-2-yl)piperazin-1-yl)methyl)benzyl)quinazoline-2,4(1H,3H)-dione]: in assay [1] (setting [3]), the IC50 came to 1440 nM. Also, in assay [2] (Homo sapiens, T47D, 24 h), the EC50 is 471 nM.

On to `O=C(Cc1ccc2ccccc2c1)Nc1cccc(Cn2c(=O)[nH]c(=O)c3ccccc32)c1` [Example 196, 1-(3-(Naphthalen-2-yl)acetamidobenzyl)quinazoline-2,4(1H,3H)-dione], for which, in assay [1] (setting [3]), the IC50 came out at 985 nM. The EC50 in assay [2] (Homo sapiens, T47D, 24 h) was over 10000 nM.

On to `COc1ccc(CC(=O)Nc2cccc(Cn3c(=O)[nH]c(=O)c4ccccc43)c2)cc1OC` [Example 197, 1-(3-(3,4-Dimethoxyphenyl)acetamidobenzyl)quinazoline-2,4(1H,3H)-dione], for which the IC50 in assay [1] (setting [3]) was over 10000 nM. The EC50 in assay [2] (Homo sapiens, T47D, 24 h) is over 10000 nM.

`O=C(c1cccc(Cn2c(=O)[nH]c(=O)c3ccccc32)c1)c1ccc2nncn2c1` [Example 198, 1-(3-([1,2,4]Triazolo[4,3-a]pyridine-6-carbonyl)benzyl)quinazoline-2,4(1H,3H)-dione]: in assay [1] (setting [3]), the IC50 is over 10000 nM. In addition, the half-maximal effective concentration (EC50) in assay [2] (Homo sapiens, T47D, 24 h) was over 10000 nM.

Turning to `COc1ccc(CNC(=O)c2cc(Cn3c(=O)[nH]c(=O)c4c(F)cccc43)ccc2F)cc1` [Example 200, 5-Fluoro-1-(4-fluoro-3-(4-methoxybenzylcarbamoyl)benzyl)quinazoline-2,4(1H,3H)-dione], in assay [1] (setting [3]), the IC50 was over 10000 nM. Moreover, the EC50 in assay [2] (Homo sapiens, T47D, 24 h) is over 10000 nM.

For `O=C(NCc1cccc(Cl)c1)c1cc(Cn2c(=O)[nH]c(=O)c3c(F)cccc32)ccc1F` [Example 201, 1-(3-(3-Chlorobenzylcarbamoyl)-4-fluorobenzyl)-5-fluoroquinazoline-2,4(1H,3H)-dione], the IC50 in assay [1] (setting [3]) was over 10000 nM. Further, in assay [2] (Homo sapiens, T47D, 24 h), the EC50 was over 10000 nM.

In the case of `O=C(NCc1ccccc1)c1cc(Cn2c(=O)[nH]c(=O)c3c(F)cccc32)ccc1F` [Example 202, 1-(3-(Benzylcarbamoyl)-4-fluorobenzyl)-5-fluoroquinazoline-2,4(1H,3H)-dione], the IC50 in assay [1] (setting [3]) is over 10000 nM. Besides, the EC50 in assay [2] (Homo sapiens, T47D, 24 h) was over 10000 nM.

`COc1cccc2c1c(=O)[nH]c(=O)n2Cc1cccc(C(=O)N2CCN(c3ncccn3)CC2)c1` [Example 203, 5-Methoxy-1-(3-(4-(pyrimidin-2-yl)piperazine-1-carbonyl)benzyl)quinazoline-2,4(1H,3H)-dione]: the IC50 in assay [1] (setting [3]) is over 10000 nM. The EC50 in assay [2] (Homo sapiens, T47D, 24 h) is over 10000 nM.
